Results published in ChEMBL document CHEMBL3390836, “Mannich- and LedererManasse-based analogues of the natural product S-(+)-curcuphenol as cancer proliferation and migration inhibitors” (Medchemcomm, 2012).
pIC50: −log10 of the molar value.

What was measured:
MDA-MB-231 [1] = assay: Cytotoxicity against human MDA-MB-231 cells assessed as cell growth at 10 uM after 48 hrs by SRB assay relative to control; format: functional; conditions: MDA-MB-231, 48 h, read-out: Activity
TK-10 = assay: Cytotoxicity against human TK10 cells assessed as cell growth at 10 uM after 48 hrs by SRB assay relative to control; format: functional; conditions: TK-10, 48 h, read-out: Activity
SN12C = assay: Cytotoxicity against human SN12C cells assessed as cell growth at 10 uM after 48 hrs by SRB assay relative to control; format: functional; conditions: read-out: Activity
RXF 393 = assay: Cytotoxicity against human RXF393 cells assessed as cell growth at 10 uM after 48 hrs by SRB assay relative to control; format: functional; conditions: RXF 393, 48 h, read-out: Activity
CAKI-1 = assay: Cytotoxicity against human Caki1 cells assessed as cell growth at 10 uM after 48 hrs by SRB assay relative to control; format: functional; conditions: CAKI-1, 48 h, read-out: Activity
ACHN = assay: Cytotoxicity against human ACHN cells assessed as cell growth at 10 uM after 48 hrs by SRB assay relative to control; format: functional; conditions: read-out: Activity
786-0 = assay: Cytotoxicity against human 786-0 cells assessed as cell growth at 10 uM after 48 hrs by SRB assay relative to control; format: functional; conditions: 786-0, 48 h, read-out: Activity
[2] = Cytotoxicity against human OVCAR5 cells assessed as cell growth at 10 uM after 48 hrs by SRB assay relative to control; format: functional; conditions: OVCAR-5, 48 h, read-out: Activity
MDA-MB-231 [3] = assay: Cytotoxicity against human MDA-MB-231 cells assessed as growth inhibition after 24 hrs by MTT assay; format: cell-based; conditions: MDA-MB-231, 24 h
[4] = Cytotoxicity against human OVCAR4 cells assessed as cell growth at 10 uM after 48 hrs by SRB assay relative to control; format: functional; conditions: OVCAR-4, 48 h, read-out: Activity
[5] = Cytotoxicity against human OVCAR3 cells assessed as cell growth at 10 uM after 48 hrs by SRB assay relative to control; format: functional; conditions: OVCAR-3, 48 h, read-out: Activity
IGROV-1 = assay: Cytotoxicity against human IGROV1 cells assessed as cell growth at 10 uM after 48 hrs by SRB assay relative to control; format: functional; conditions: IGROV-1, 48 h, read-out: Activity
[6] = Cytotoxicity against human UACC62 cells assessed as cell growth at 10 uM after 48 hrs by SRB assay relative to control; format: functional; conditions: UACC-62, 48 h, read-out: Activity
SK-MEL-2 = assay: Cytotoxicity against human SK-MEL-2 cells assessed as cell growth at 10 uM after 48 hrs by SRB assay relative to control; format: functional; conditions: SK-MEL-2, 48 h, read-out: Activity
MDA-MB-435 = assay: Cytotoxicity against human MDA-MB-435 cells assessed as cell growth at 10 uM after 48 hrs by SRB assay relative to control; format: functional; conditions: MDA-MB-435, 48 h, read-out: Activity
M14 = assay: Cytotoxicity against human M14 cells assessed as cell growth at 10 uM after 48 hrs by SRB assay relative to control; format: functional; conditions: M14, 48 h, read-out: Activity
U-251 = assay: Cytotoxicity against human U251 cells assessed as cell growth at 10 uM after 48 hrs by SRB assay relative to control; format: functional; conditions: U-251, 48 h, read-out: Activity
LOX IMVI = assay: Cytotoxicity against human LOXIMVI cells assessed as cell growth at 10 uM after 48 hrs by SRB assay relative to control; format: functional; conditions: read-out: Activity
SNB-75 = assay: Cytotoxicity against human SNB75 cells assessed as cell growth at 10 uM after 48 hrs by SRB assay relative to control; format: functional; conditions: SNB-75, 48 h, read-out: Activity
SF-539 = assay: Cytotoxicity against human SF539 cells assessed as cell growth at 10 uM after 48 hrs by SRB assay relative to control; format: functional; conditions: SF-539, 48 h, read-out: Activity
SNB-19 = assay: Cytotoxicity against human SNB19 cells assessed as cell growth at 10 uM after 48 hrs by SRB assay relative to control; format: functional; conditions: SNB-19, 48 h, read-out: Activity
KM12 = assay: Cytotoxicity against human KM12 cells assessed as cell growth at 10 uM after 48 hrs by SRB assay relative to control; format: functional; conditions: KM12, 48 h, read-out: Activity
SW-620 = assay: Cytotoxicity against human SW620 cells assessed as cell growth at 10 uM after 48 hrs by SRB assay relative to control; format: functional; conditions: SW-620, 48 h, read-out: Activity
HT-29 = assay: Cytotoxicity against human HT-29 cells assessed as cell growth at 10 uM after 48 hrs by SRB assay relative to control; format: functional; conditions: HT-29, 48 h, read-out: Activity
HCC 2998 = assay: Cytotoxicity against human HCC2998 cells assessed as cell growth at 10 uM after 48 hrs by SRB assay relative to control; format: functional; conditions: HCC 2998, 48 h, read-out: Activity
[7] = Cytotoxicity against human HCT116 cells assessed as cell growth at 10 uM after 48 hrs by SRB assay relative to control; format: functional; conditions: HCT-116, 48 h, read-out: Activity
COLO 205 = assay: Cytotoxicity against human COLO205 cells assessed as cell growth at 10 uM after 48 hrs by SRB assay relative to control; format: functional; conditions: COLO 205, 48 h, read-out: Activity
NCI-H322M = assay: Cytotoxicity against human NCI-H322M cells assessed as cell growth at 10 uM after 48 hrs by SRB assay relative to control; format: functional; conditions: read-out: Activity
NCI-H23 = assay: Cytotoxicity against human NCI-H23 cells assessed as cell growth at 10 uM after 48 hrs by SRB assay relative to control; format: functional; conditions: NCI-H23, 48 h, read-out: Activity
[8] = Cytotoxicity against human EKVX cells assessed as cell growth at 10 uM after 48 hrs by SRB assay relative to control; format: functional; conditions: read-out: Activity
RPMI-8226 = assay: Cytotoxicity against human RPMI8226 cells assessed as cell growth at 10 uM after 48 hrs by SRB assay relative to control; format: functional; conditions: RPMI-8226, 48 h, read-out: Activity
K562 = assay: Cytotoxicity against human K562 cells assessed as cell growth at 10 uM after 48 hrs by SRB assay relative to control; format: functional; conditions: K562, 48 h, read-out: Activity
HL-60(TB) = assay: Cytotoxicity against human HL-60(TB) cells assessed as cell growth at 10 uM after 48 hrs by SRB assay relative to control; format: functional; conditions: HL-60, 48 h, read-out: Activity
CCRF-CEM = assay: Cytotoxicity against human CCRF-CEM cells assessed as cell growth at 10 uM after 48 hrs by SRB assay relative to control; format: functional; conditions: read-out: Activity
MDA-MB-231 [9] = assay: Growth inhibition of human MDA-MB-231 cells after 72 hrs by MTT assay; format: functional, cell-based; conditions: MDA-MB-231, 72 h
MCF7 = assay: Growth inhibition of human MCF7 cells after 72 hrs by MTT assay; format: functional, cell-based; conditions: MCF7, 72 h

| SMILES | growth at 10 µM (MDA-MB-231 [1]) [%] | growth at 10 µM (TK-10) [%] | growth at 10 µM (SN12C) [%] | growth at 10 µM (RXF 393) [%] | growth at 10 µM (CAKI-1) [%] | growth at 10 µM (ACHN) [%] | growth at 10 µM (786-0) [%] | growth at 10 µM [2] [%] | pIC50 (MDA-MB-231 [3]) | growth at 10 µM [4] [%] | growth at 10 µM [5] [%] | growth at 10 µM (IGROV-1) [%] | growth at 10 µM [6] [%] | growth at 10 µM (SK-MEL-2) [%] | growth at 10 µM (MDA-MB-435) [%] | growth at 10 µM (M14) [%] | growth at 10 µM (U-251) [%] | growth at 10 µM (LOX IMVI) [%] | growth at 10 µM (SNB-75) [%] | growth at 10 µM (SF-539) [%] | also measured |
| --- | --- | --- | --- | --- | --- | --- | --- | --- | --- | --- | --- | --- | --- | --- | --- | --- | --- | --- | --- | --- | --- |
| CC(C)=CCC[C@H](C)c1ccc(C)c(CO)c1O | 109 | 103 | 91.3 | 92.3 | 112 | 110 | 80.1 | 110 | < 4.70 | 90.7 | 91.1 | 107 | 90.4 | 102 | 108 | 103 | 98.8 | 103 | 83.4 | 98.4 | growth at 10 µM (SNB-19): 101%; growth at 10 µM (KM12): 92.1%; growth at 10 µM (SW-620): 118%; growth at 10 µM (HT-29): 103%; growth at 10 µM (HCC 2998): 102%; growth at 10 µM [7]: 91.3%; growth at 10 µM (COLO 205): 125%; growth at 10 µM (NCI-H322M): 109%; growth at 10 µM (NCI-H23): 92.9%; growth at 10 µM [8]: 103%; growth at 10 µM (RPMI-8226): 88.8%; growth at 10 µM (K562): 101%; growth at 10 µM (HL-60(TB)): 95.7%; growth at 10 µM (CCRF-CEM): 94.2%; pIC50 (MDA-MB-231 [9]): 4.65; pIC50 (MCF7): < 4.70 |
| CC(C)=CCC[C@H](C)c1ccc(C)cc1O | 97.1 | 110 | 105 | 103 | 107 | 109 | 79.9 | 99 | < 4.70 | 100 | 96.3 | 97.8 | 100 | 147 | 100 | 106 | 103 | 107 | 94.3 | 103 | growth at 10 µM (SNB-19): 98.5%; growth at 10 µM (KM12): 93.8%; growth at 10 µM (SW-620): 114%; growth at 10 µM (HT-29): 103%; growth at 10 µM (HCC 2998): 99.5%; growth at 10 µM [7]: 97.3%; growth at 10 µM (COLO 205): 117%; growth at 10 µM (NCI-H322M): 113%; growth at 10 µM (NCI-H23): 94.9%; growth at 10 µM [8]: 110%; growth at 10 µM (RPMI-8226): 99.9%; growth at 10 µM (K562): 93%; growth at 10 µM (HL-60(TB)): 85.7%; growth at 10 µM (CCRF-CEM): 105%; pIC50 (MDA-MB-231 [9]): < 4.30; pIC50 (MCF7): < 4.70 |
